Test results as given in patent publication US7855259B2, “Method for producing melt-processable fluororesin” (Asahi Glass Company, Limited, priority 2005, dated 2010).

Assay: Measurement of 1-octanol/water partition coefficient (LogPOW) by HPLC, OECD Test Guideline 117
Type: physicochemical
Conditions: for LogPOW: 1-octanol/water partition coefficient calculated from HPLC elution time, OECD Test Guideline 117, ODS column, acetonitrile/0.6 mass % HClO4 aq. 1/1, 40° C.; for bioaccumulation potential (indicated by LogPOW value as compared to APFO): judged from LogPOW compared to APFO
Protocol: In accordance with OECD Test Guideline 117, 1-octanol/water partition coefficient (LogPOW) of a fluorinated emulsifier was measured by using HPLC (high performance liquid chromatography).
Conditions for the measurement were as follows: column: TOSOH ODS-120T column (φ 4.6 mm×250 mm), eluent: acetonitrile/0.6 mass % of HClO4 aqueous solution=1/1 (vol/vol %), flow rate: […], sample amount: 300 μL, column temperature: 40° C., and detection light: UV 210 nm (WO2005-42593).
HPLC was carried out on standard substances (heptanoic acid, octanoic acid, nonanoic acid and decanoic acid) having known 1-octanol/water partition coefficients, and a calibration curve was prepared from the respective elution times and octanol/water partition coefficients of the respective standard substances. Based on this calibration curve, a value of partition coefficient (LogPOW) between 1-octanol and water was calculated from the elution time by HPLC of the fluorinated emulsifier.
Further, in general, in order to judge whether or not a chemical substance is apt to be accumulated in a living organism, a testing method for measurement of a partition coefficient (LogPOW) between 1-octanol and water, is stipulated. As the testing method, in addition to “Partition Coefficient (1-octanol/water) Shake Flask Method” as stipulated in OECD test guideline 107 and in Japanese Industrial Standards Z 7260-107 (2000), a HPLC method (high-performance liquid chromatography) as stipulated and published in OECD Test Guideline 117, is used. A compound having a large partition coefficient value has a large tendency for bioaccumulation, and a compound having a small value means a small tendency for bioaccumulation. In a case where the LogPOW value is less than 3.5, it is considered proper to judge that it is not a high-concentration, and bioaccumulation is also considered to be small.

Row | SMILES | LogPOW | bioaccumulation potential (indicated by LogPOW value as compared to APFO)
1 | N.O=C(O)C(F)(F)C(F)(F)C(F)(F)C(F)(F)C(F)(F)C(F)(F)C(F)(F)F [CF3(CF2)6COONH4, ammonium perfluorooctanoate] | 3.67 | 
2 | N.O=C(O)C(F)(F)OC(F)(F)C(F)(F)OC(F)(F)C(F)(F)F [CF3CF2OCF2CF2OCF2COONH4] | 3.13 | low
3 | N.O=C(O)C(F)(OC(F)(F)C(F)(OC(F)(F)C(F)(F)F)C(F)(F)F)C(F)(F)F (centres unmarked) [CF3CF2OCF(CF3)CF2OCF(CF3)COONH4] | 4.03 | high
